Here are results for nine compounds from patent US10206394B2, “Herbicidal compounds” (Syngenta Participations AG, priority 2014, dated 2019).

Read-outs that look alike come from different tables or passages of the source.

Holding throughout (test): Glasshouse assay for herbicidal activity (pre- and post-emergence), percentage phytotoxicity
Assay type in all cases: in vivo

Test [1] deals with Echinochloa crus-galli (ECHCG). Conditions: Echinochloa crus-galli. The essentials: (§1)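 Pot-grown, standard soil. PRE: spray 1 d post-sowing; POST: ~12 d. Glasshouse 24/18 °C (warm spp.) / 20/16 °C (cool spp.), 16 h light, 65% RH, watered 2×/day. Visual % damage, 20 DAA PRE, 15 DAA POST.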
Test [2] concerns Alopecurus myosuroides (ALOMY). Conditions: Alopecurus myosuroides. The method, boiled down: as §1
A further test has as its system Lolium perenne (LOLPE). Conditions: Lolium perenne. The method, boiled down:
as §1

For a further test, the system named is Avena fatua (AVEFA). Conditions: Avena fatua. The essentials: as §1
The mark [3] stands for this setting: post-emergence, 360 h, Rate 250 g/ha, post-emergence, assessed visually 15 DAA, 100%=total damage, 0%=no damage, read-out: Post-emergence herbicidal activity (percentage phytotoxicity) ECHCG POST.
Where [4] appears, read: pre-emergence, 480 h, Rate 250 g/ha, pre-emergence, assessed visually 20 DAA, 100%=total damage, 0%=no damage, read-out: Pre-emergence herbicidal activity (percentage phytotoxicity) ECHCG PRE.
[5] abbreviates: post-emergence, 360 h, Rate 250 g/ha, post-emergence, assessed visually 15 DAA, 100%=total damage, 0%=no damage, read-out: Post-emergence herbicidal activity (percentage phytotoxicity) ALOMY POST.
Where [6] appears, read: pre-emergence, 480 h, Rate 250 g/ha, pre-emergence, assessed visually 20 DAA, 100%=total damage, 0%=no damage, read-out: Pre-emergence herbicidal activity (percentage phytotoxicity) ALOMY PRE.
[7] abbreviates: post-emergence, 360 h, Rate 250 g/ha, post-emergence, assessed visually 15 DAA, 100%=total damage, 0%=no damage, read-out: Post-emergence herbicidal activity (percentage phytotoxicity) LOLPE POST.
The mark [8] stands for this setting: pre-emergence, 480 h, Rate 250 g/ha, pre-emergence, assessed visually 20 DAA, 100%=total damage, 0%=no damage, read-out: Pre-emergence herbicidal activity (percentage phytotoxicity) LOLPE PRE.
Where [9] appears, read: post-emergence, 360 h, Rate 250 g/ha, post-emergence, assessed visually 15 DAA, 100%=total damage, 0%=no damage, read-out: Post-emergence herbicidal activity (percentage phytotoxicity) AVEFA POST.
Where [10] appears, read: pre-emergence, 480 h, Rate 250 g/ha, pre-emergence, assessed visually 20 DAA, 100%=total damage, 0%=no damage, read-out: Pre-emergence herbicidal activity (percentage phytotoxicity) AVEFA PRE.
Setting [11] is: post-emergence, 360 h, POST-emergence, rate 250 g/ha, visual score 15 DAA (100%=total damage, 0%=no damage), read-out: Post-emergence herbicidal activity (percentage phytotoxicity) ECHCG POST.
Setting [12] is: pre-emergence, 480 h, PRE-emergence, rate 250 g/ha, visual score 20 DAA (100%=total damage, 0%=no damage), read-out: Pre-emergence herbicidal activity (percentage phytotoxicity) ECHCG PRE.
[13] abbreviates: post-emergence, 360 h, POST-emergence, rate 250 g/ha, visual score 15 DAA (100%=total damage, 0%=no damage), read-out: Post-emergence herbicidal activity (percentage phytotoxicity) ALOMY POST.
The mark [14] stands for this setting: pre-emergence, 480 h, PRE-emergence, rate 250 g/ha, visual score 20 DAA (100%=total damage, 0%=no damage), read-out: Pre-emergence herbicidal activity (percentage phytotoxicity) ALOMY PRE.
Where [15] appears, read: post-emergence, 360 h, POST-emergence, rate 250 g/ha, visual score 15 DAA (100%=total damage, 0%=no damage), read-out: Post-emergence herbicidal activity (percentage phytotoxicity) LOLPE POST.
The mark [16] stands for this setting: pre-emergence, 480 h, PRE-emergence, rate 250 g/ha, visual score 20 DAA (100%=total damage, 0%=no damage), read-out: Pre-emergence herbicidal activity (percentage phytotoxicity) LOLPE PRE.
The mark [17] stands for this setting: post-emergence, 360 h, POST-emergence, rate 250 g/ha, visual score 15 DAA (100%=total damage, 0%=no damage), read-out: Post-emergence herbicidal activity (percentage phytotoxicity) AVEFA POST.
Where [18] appears, read: pre-emergence, 480 h, PRE-emergence, rate 250 g/ha, visual score 20 DAA (100%=total damage, 0%=no damage), read-out: Pre-emergence herbicidal activity (percentage phytotoxicity) AVEFA PRE.

As for `Cc1ccc(CNC(=O)CC2CC(=O)C(c3c(C)cc(-c4ccc(F)cn4)cc3C)C2=O)cc1` (stereo not drawn) [Compound B398], the pest or weed control at 250 g/ha was 100% in test [1] (post-emergence, 360 h, Rate 250 g/ha, post-emergence, visual assessment 15 DAA, 100%=total damage, 0%=no damage, read-out: Post-emergence herbicidal activity (percentage phytotoxicity) ECHCG POST); 70% in test [1] (pre-emergence, 480 h, Rate 250 g/ha, pre-emergence, visual assessment 20 DAA, 100%=total damage, 0%=no damage, read-out: Pre-emergence herbicidal activity (percentage phytotoxicity) ECHCG PRE); 80% in test [2] (post-emergence, 360 h, Rate 250 g/ha, post-emergence, visual assessment 15 DAA, 100%=total damage, 0%=no damage, read-out: Post-emergence herbicidal activity (percentage phytotoxicity) ALOMY POST); 50% in test [2] (pre-emergence, 480 h, Rate 250 g/ha, pre-emergence, visual assessment 20 DAA, 100%=total damage, 0%=no damage, read-out: Pre-emergence herbicidal activity (percentage phytotoxicity) ALOMY PRE); 90% in the test with Lolium perenne (LOLPE) (post-emergence, 360 h, Rate 250 g/ha, post-emergence, visual assessment 15 DAA, 100%=total damage, 0%=no damage, read-out: Post-emergence herbicidal activity (percentage phytotoxicity) LOLPE POST); 70% in the test on Lolium perenne (LOLPE) (pre-emergence, 480 h, Rate 250 g/ha, pre-emergence, visual assessment 20 DAA, 100%=total damage, 0%=no damage, read-out: Pre-emergence herbicidal activity (percentage phytotoxicity) LOLPE PRE). The pest or weed control at 250 g/ha was 80% in the test on Avena fatua (AVEFA) (post-emergence, 360 h, Rate 250 g/ha, post-emergence, visual assessment 15 DAA, 100%=total damage, 0%=no damage, read-out: Post-emergence herbicidal activity (percentage phytotoxicity) AVEFA POST) and 40% in the test on Avena fatua (AVEFA) (pre-emergence, 480 h, Rate 250 g/ha, pre-emergence, visual assessment 20 DAA, 100%=total damage, 0%=no damage, read-out: Pre-emergence herbicidal activity (percentage phytotoxicity) AVEFA PRE).
Turning to `CCC(C)NC(=O)CC1CC(=O)C(c2c(C)cc(-c3ncc(Cl)cc3F)cc2C)C1=O` (stereo not drawn) [Compound B119], the pest or weed control at 250 g/ha came to 100% in test [1] (post-emergence, 360 h, 250 g/ha, post-emergence, 15 DAA, visual assessment (100%=total damage, 0%=no damage), read-out: Post-emergence herbicidal activity (percentage phytotoxicity) ECHCG POST); 100% in test [1] (pre-emergence, 480 h, 250 g/ha, pre-emergence, 20 DAA, visual assessment (100%=total damage, 0%=no damage), read-out: Pre-emergence herbicidal activity (percentage phytotoxicity) ECHCG PRE); 100% in test [2] (post-emergence, 360 h, 250 g/ha, post-emergence, 15 DAA, visual assessment (100%=total damage, 0%=no damage), read-out: Post-emergence herbicidal activity (percentage phytotoxicity) ALOMY POST); 100% in test [2] (pre-emergence, 480 h, 250 g/ha, pre-emergence, 20 DAA, visual assessment (100%=total damage, 0%=no damage), read-out: Pre-emergence herbicidal activity (percentage phytotoxicity) ALOMY PRE); 100% in the test with Lolium perenne (LOLPE) (post-emergence, 360 h, 250 g/ha, post-emergence, 15 DAA, visual assessment (100%=total damage, 0%=no damage), read-out: Post-emergence herbicidal activity (percentage phytotoxicity) LOLPE POST); 100% in the test on Lolium perenne (LOLPE) (pre-emergence, 480 h, 250 g/ha, pre-emergence, 20 DAA, visual assessment (100%=total damage, 0%=no damage), read-out: Pre-emergence herbicidal activity (percentage phytotoxicity) LOLPE PRE). The pest or weed control at 250 g/ha in the test on Avena fatua (AVEFA) (post-emergence, 360 h, 250 g/ha, post-emergence, 15 DAA, visual assessment (100%=total damage, 0%=no damage), read-out: Post-emergence herbicidal activity (percentage phytotoxicity) AVEFA POST) is 100%; with Avena fatua (AVEFA) (pre-emergence, 480 h, 250 g/ha, pre-emergence, 20 DAA, visual assessment (100%=total damage, 0%=no damage), read-out: Pre-emergence herbicidal activity (percentage phytotoxicity) AVEFA PRE), 90%.
Regarding `Cc1cc(C)c(C2C(=O)CC(CC(=O)N3CCSCC3)C2=O)c(C)c1` (stereo not drawn) [Compound A163], the pest or weed control at 250 g/ha in test [1] (setting [3]) came out at 70%; in test [1] (setting [4]), 70%; in test [2] (setting [5]), 30%; in test [2] (setting [6]), 10%; in the test with Lolium perenne (LOLPE) (setting [7]) it was 60%; in the test on Lolium perenne (LOLPE) (setting [8]), 60%. Also, the pest or weed control at 250 g/ha in the test on Avena fatua (AVEFA) (setting [9]) and with Avena fatua (AVEFA) (setting [10]) was 30% throughout.
For `CCc1cc(-n2cc(Cl)cn2)cc(C)c1C1C(=O)CC(CC(=O)N(C)CC)C1=O` (stereo not drawn) [Compound B238], the pest or weed control at 250 g/ha (in test [1] (setting [11]); in test [1] (setting [12]); in test [2] (setting [13]); in test [2] (setting [14]); in the test with Lolium perenne (LOLPE) (setting [15]); in the test on Lolium perenne (LOLPE) (setting [16])) was 100% throughout. Moreover, the pest or weed control at 250 g/ha in the test on Avena fatua (AVEFA) (setting [17]) and in the test with Avena fatua (AVEFA) (setting [18]) was 100% throughout.
Regarding `Cc1cc(C)c(C2C(=O)CC(CC(=O)NCC3CCOCC3)C2=O)c(C)c1` (stereo not drawn) [Compound A13], the pest or weed control at 250 g/ha stood at 80% in test [1] (setting [3]); 100% in test [1] (setting [4]); 80% in test [2] (setting [5]); 50% in test [2] (setting [6]); 80% in the test with Lolium perenne (LOLPE) (setting [7]); 70% with Lolium perenne (LOLPE) (setting [8]). The pest or weed control at 250 g/ha in the test on Avena fatua (AVEFA) (setting [9]) amounted to 70%; in the test with Avena fatua (AVEFA) (setting [10]), 40%.
Take `Cc1cc(-c2ccc(Cl)cn2)cc(C)c1C1C(=O)CC(CC(=O)NC(C)(C)C)C1=O` (stereo not drawn) [Compound A41]: the pest or weed control at 250 g/ha (in test [1] (setting [3]); in test [1] (setting [4]); in test [2] (setting [5]); in test [2] (setting [6]); with Lolium perenne (LOLPE) (setting [7]); in the test with Lolium perenne (LOLPE) (setting [8])) was 100% each time. For the same compound, the pest or weed control at 250 g/ha came out at 100% in the test with Avena fatua (AVEFA) (setting [9]) and 70% with Avena fatua (AVEFA) (setting [10]).
Turning to `C#CCN(C)C(=O)CC1CC(=O)C(c2c(C)cc(/C=C/C)cc2C)C1=O` (stereo not drawn) [Compound B250], the pest or weed control at 250 g/ha in test [1] (setting [11]) is 100%; in test [1] (setting [12]) it was 90%; in test [2] (setting [13]), 100%; in test [2] (setting [14]), 50%; in the test on Lolium perenne (LOLPE) (setting [15]) it was 100%; in the test with Lolium perenne (LOLPE) (setting [16]), 80%. Also, the pest or weed control at 250 g/ha in the test on Avena fatua (AVEFA) (setting [17]) is 90%; in the test with Avena fatua (AVEFA) (setting [18]), 50%.
In the case of `C/C=C/c1cc(C)c(C2C(=O)CC(CC(=O)NC(C)C)C2=O)c(CC)c1` (stereo not drawn) [Compound B192], the pest or weed control at 250 g/ha (in test [1] (setting [11]); in test [1] (setting [12]); in test [2] (setting [13]); in test [2] (setting [14]); in the test on Lolium perenne (LOLPE) (setting [15]); with Lolium perenne (LOLPE) (setting [16])) was 100% in each case. For the same compound, the pest or weed control at 250 g/ha in the test on Avena fatua (AVEFA) (setting [17]) turned out to be 100%; in the test with Avena fatua (AVEFA) (setting [18]), 90%.
`CC#Cc1cc(C)c(C2C(=O)CC(CC(=O)NCc3cnc(C)cn3)C2=O)c(C)c1` (stereo not drawn) [Compound A144]: the pest or weed control at 250 g/ha turned out to be 100% in test [1] (setting [3]); 100% in test [1] (setting [4]); 80% in test [2] (setting [5]); 80% in test [2] (setting [6]); 90% with Lolium perenne (LOLPE) (setting [7]); 90% in the test with Lolium perenne (LOLPE) (setting [8]). The pest or weed control at 250 g/ha in the test on Avena fatua (AVEFA) (setting [9]) came to 100%; in the test on Avena fatua (AVEFA) (setting [10]) it was 90%.
